Read-outs that look alike come from different tables or passages of the source.
Test system: SARS-CoV-2-specific CD4+ T cells (OX40+CD137+) in PBMC
Assay type: cell-based, human
Settings: CD4+ T cell epitopes identified by AIM assay; for Magnitude by # of responding donors: sum of response per responding donor
[1] = percent of tested donors responding
[2] = total response summed over donors

| Sequence | Frequency of response (%) (share of donors responding) | Magnitude by # of responding donors | Sum of response (total response) | Frequency of response (%) [1] [%] | Sum of response [2] |
| --- | --- | --- | --- | --- | --- |
| HKNNKSWMESEFRVY | 9 | 572 | 572 |  |  |
| HTTDPSFLGRYMSAL | 18 | 2461 | 4921 |  |  |
| HWFVTQRNFYEPQII | 7 | 598 | 598 |  |  |
| IAATRGATVVIGTSK | 6 | 117 | 117 |  |  |
| IAGHHLGRCDIKDLP | 25 | 522 | 1565 |  |  |
| IATNGPLKVGGSCVL | 8 | 112 | 112 |  |  |
| IDAYPLTKHPNQEYA | 14 | 115 | 229 |  |  |
| IGINITRFQTLLALH |  | 177 |  | 9 | 177 |
| IGNYKLNTDHSSSSD | 15 | 134 | 267 |  |  |
| IGNYTVSCLPFTINC | 45 | 245 | 1223 |  |  |
| IKDLPKEITVATSRT | 23 | 258 | 774 |  |  |
| ILLNKHIDAYKTFPP | 42 | 483 | 2416 |  |  |
| IPFAMQMAYRFNGIG | 18 | 187 | 373 |  |  |
| IQWMVMFTPLVPFWI | 8 | 603 | 603 |  |  |
| IQYIDIGNYTVSCLP | 9 | 1805 | 1805 |  |  |
| IRGWIFGTTLDSKTQ | 9 | 327 | 327 |  |  |
| ITGGIAIAMACLVGL | 17 | 207 | 414 |  |  |
| IVRFPNITNLCPFGE |  | 107 |  | 9 | 107 |
| IWVATEGALNTPKDH | 7 | 200 | 200 |  |  |
| KEGQINDMILSLLSK | 33 | 391 | 391 |  |  |
| KEITVATSRTLSYYK | 54 | 516 | 3615 |  |  |
| KHFYWFFSNYLKRRV [SEQ ID NO 244] | 8 | 959 | 959 |  |  |
| KIITLKKRWQLALSK | 9 | 120 | 120 |  |  |
| KKPRQKRTATKAYNV | 31 | 227 | 907 |  |  |
| KKRWQLALSKGVHFV [SEQ ID NO 250] |  | 144 |  | 18 | 287 |
| KLLKSIAATRGATVV [SEQ ID NO 258] |  | 230 |  | 6 | 230 |
| KLNDLCFTNVYADSF | 8 | 130 | 130 |  |  |
| KNPLLYDANYFLCWH [SEQ ID NO 253] |  | 112 |  | 7 | 112 |

| Sequence | Frequency of response (%) (share of donors responding) | Magnitude by # of responding donors | Sum of response (total response) | Frequency of response (%) [1] [%] | Sum of response [2] |
| --- | --- | --- | --- | --- | --- |
| KNTQEVFAQVKQIYK | 8 | 125 | 125 |  |  |
| KPSKRSFIEDLLFNK |  | 622 |  | 17 | 1243 |
| KTDGTLMIERFVSLA | 7 | 150 | 150 |  |  |
| KVTFFPDLNGDVVAI [SEQ ID NO 257] |  | 147 |  | 15 | 293 |
| LEAPFLYLYALVYFL | 7 | 272 | 272 |  |  |
| LGASQRVAGDSGFAA | 15 | 491 | 981 |  |  |
| LGDIAARDLICAQKF | 8 | 153 | 153 |  |  |
| LGRCDIKDLPKEITV | 25 | 313 | 938 |  |  |
| LGVYYHKNNKSWMES | 9 | 259 | 259 |  |  |
| LIFLWLLWPVTLACF | 8 | 1194 | 1194 |  |  |
| LIRQGTDYKHWPQIA | 15 | 216 | 431 |  |  |
| LKPFERDISTEIYQA | 17 | 594 | 1188 |  |  |
| LLEQWNLVIGFLFLT | 13 | 122 | 243 |  |  |
| LLFNKVTLADAGFIK | 8 | 297 | 297 |  |  |
| LLLLDRLNQLESKMS [SEQ ID NO 247] | 21 | 581 | 1742 |  |  |
| LLWPVTLACFVLAAV | 17 | 260 | 520 |  |  |
| LMDLEGKQGNFKNLR | 36 | 347 | 1386 |  |  |
| LMIERFVSLAIDAYP [SEQ ID NO 259] |  | 388 |  | 36 | 1941 |
| LNQLTGYKKPASREL | 8 | 168 | 168 |  |  |
| LNTDHSSSSDNIALL | 8 | 568 | 568 |  |  |
| LPDPSKPSKRSFIED | 8 | 109 | 109 |  |  |
| LPFFSNVTWFHAIHV | 9 | 156 | 156 |  |  |
| LPNDDTLRVEAFEYY | 9 | 162 | 162 |  |  |
| LPPLLTDEMIAQYTS | 9 | 153 | 153 |  |  |
| LPQGFSALEPLVDLP | 18 | 418 | 836 |  |  |
| LPYGANKDGIIWVAT | 14 | 418 | 835 |  |  |
| LQPELDSFKEELDKY | 7 | 173 | 173 |  |  |
